The source of these data is a melting point compilation (Tetko et al.; mined from patent text by program, amines drawn as free bases though some values may be those of a salt).

The structures appear in SMILES notation.

In turn, `CC1=C(N)C(C)C2CC(C)(CN3CCN(c4ccc(-n5ccnc5)cc4)CC3)OC2=C1C` (centres undefined) showed a melting point of 165 to 167 °C.
Then `COc1ccc(CCN2CCC(C(O)c3ccc(NS(C)(=O)=O)cc3)CC2)cc1` (centres undefined), with 40 to 48 °C; and `CCN1CCCC(N2C(=O)c3ccc([N+](=O)[O-])cc3C2=O)C1` (centres undefined), with more than 300 °C; and `NC(=O)CN1C(=O)COc2cc(F)ccc21`, with 212 to 214 °C.
Then `CCCc1c(OCCCOc2ccc(C(=O)O)cc2Br)ccc(C(C)=O)c1OC(=O)CC`, with 136 to 137 °C; and `COC(=O)C=Nc1cc(Cl)ccc1C(=O)O`, with 201 to 203 °C; and `CC(C)c1cccc(C(C)C)c1NC(=O)CS(=O)(=O)CCCl`, with 166 to 168 °C.
Then `COc1ccc2c(c1)C1=C(SCC3(CCN(CC(O)Cc4ccccc4)CC3)O1)C(=O)C2=O` (centres undefined), with 106 °C; and `Cc1cc(C)c2c(c1)OC(C)(COc1ccc([N+](=O)[O-])cc1)C=C2` (centres undefined), with 116 to 118 °C.
With `O=C1c2ccccc2-c2c1cccc2-c1nc2ccncc2[nH]1`, the melting point lay in the range of 236 to 238 °C.
Then `COc1cccc2c1nc(C(F)F)n2-c1nc(N2CCOCC2)nc(N2CCN(S(=O)(=O)C(F)(F)F)CC2)n1`, with 272 to 273 °C; and `Cc1nnc(Sc2nc3cc(C(=O)c4ccccc4)ccc3nc2C(F)(F)F)s1`, with 176 to 179 °C; and `CC(=O)OCC1OC(n2cc(C)c(=O)[nH]c2=O)CC1N=[N+]=[N-]` (centres undefined), with 96 to 98 °C.
Then `O=C1N(Cc2ccccn2)c2ccccc2C12COc1c(Cl)cc3c(c12)OCCO3` (centres undefined), with 197 to 199 °C.
Then `N=C(NCC1CCCO1)Nc1c([N+](=O)[O-])cnc2ccccc12` (centres undefined), with 210 to 212 °C.
Regarding `COC(=O)c1sc(OC)cc1OP(=O)(OC)OC`, the melting point came out at 35 °C.
Then `O=NCNC1=Nc2ccsc2C(c2ccccc2)=NC1`, with 156 to 159 °C; and `Cc1ccc(C)c(-c2cc(CO)ccc2CO)c1`, with 145 to 148 °C.
Then `c1ccc(N2CNCC23CCN(C2CCc4ccccc42)CC3)cc1` (racemic), with more than 250 °C.
Then `Cc1cccc(Cl)c1CNC(=O)C(C)Br` (centres undefined), with 168 to 169 °C.
The compound `COC(=O)c1c(CNC(=O)c2ccc(C(=O)O)cc2)ccc2c1C(C)(C)CCC2(C)C` had a melting point of 95 to 100 °C.
Then `CCCCCCCCCc1ccc(C(=O)[C@@H]2CCCC[C@H]2C(=O)O)cc1` (relative stereo), with 84 to 86 °C; and `Cn1ncc(Cl)c(NCCCO)c1=O`, with 65 to 66 °C; and `Cc1cnc(-c2nn(C)c(OC(F)F)c2Cl)c(F)c1`, with 41 to 42 °C.
Then `CN1CC(CCN2CCN(c3ccc(C(F)(F)F)cc3)CC2)OC1=O` (centres undefined), with 116 to 117 °C.
In the case of `CS(=O)(=O)c1nc2cnc3cccnc3c2n1Cc1ccccc1`, the melting point lay within 187 to 191 °C.
Then `CCOC(=O)CC(=O)CC(O)C=Cc1c(C)c(OCc2ccccc2)c(C)c2c1OC(C)(C)CC2` (centres undefined), with 83 to 83.5 °C; and `CC(C)(C)c1nc2cc(N3CCN(S(C)(=O)=O)CC3)c(N=C=S)cc2s1`, with 128 to 130 °C; and `CC(NC(=S)NCC(COC(=O)C(C)(C)C)Cc1ccc(C(C)(C)C)cc1)c1ccc(NS(C)(=O)=O)c(F)c1` (centres undefined), with 78 °C.
Then `O=C(O)CCC1(C(=O)O)NCC(=O)N1` (centres undefined), with 202 to 205 °C.
Compound `COC(=O)c1cc(OC)c(C(=O)OC)cc1OC` yielded a melting point of 141 to 143 °C.
Then `CCOC(=O)c1nnc2ccc([N+](=O)[O-])cc2c1O`, with 294 to 296 °C; and `CNC1(c2ccccc2)CCN(C(c2ccccc2)(c2ccccc2)c2ccccc2)CC1`, with 125 °C; and `CC(=O)Nc1ccc(C(=O)c2cc(-c3ccc(NC(C)=O)cc3)c(N3CCOCC3)s2)cc1`, with 152 °C.
Then `CC(=NNc1ccc(C(F)(F)F)cc1)C(=O)O`, with 190 to 191 °C.
Then `CCOC(=O)c1cc(C)cc(-c2ccc(N(C)C)cc2)n1`, with 143 to 144 °C; and `Nc1c(C(=O)c2cccc(Br)c2)[nH]c2cc(Cl)ccc12`, with 142 to 143 °C.
Compound `COc1ccccc1C1(c2ccccc2OC)CC1` had a melting point of 146 to 149 °C.
For the compound `Nc1cc(OCc2ccccc2)ccc1NC(=O)c1ccc(C23CC4CC(CC(C4)C2)C3)c(OCc2ccccc2)c1`, the melting point was 178 °C.
Then `CCCn1c(=O)c2c(N)n[nH]c2n(Cc2ccccc2)c1=O`, with 214 to 215 °C; and `Nc1cc(-n2cc(C(=O)O)c(=O)c3cc([N+](=O)[O-])c(F)c(F)c32)c(F)cc1F`, with 142 to 143 °C; and `Cc1ccc(C(=O)NCCCN(C)CCCNC(=O)c2ccc(C)c3nc4ccccc4nc23)c2nc3ccccc3nc12`, with 218 to 220 °C.
Then `NS(=O)(=O)c1c(Cl)nc2n1CCS2(=O)=O`, with 246 to 247 °C.
Then `O=C(O)CCC(=O)N1Cc2c(cc3ccc4c(c3c2-c2ccc3c(c2)OCO3)OCO4)C1=O`, with 231 to 233 °C; and `Cc1nc(Cn2c(=O)sc3cc(F)ccc32)no1`, with 142 to 144 °C; and `N#Cc1cc(NC(=O)c2cc3ccccc3s2)ccc1N1CCC(N2CCCCC2)CC1`, with 275 °C.
Compound `CC(=O)N1CC(C)(C)c2cc3nc[nH]c3cc21` displayed a melting point of 214 to 216 °C.
Then `CC1(c2cccc(NS(C)(=O)=O)c2)C2CN(Cc3ccccc3)CC21` (centres undefined), with 117 to 118 °C; and `COc1ccc(CN(CCN(C)C)c2cccc(/C=C/C(=O)O)n2)cc1`, with 75 to 81 °C; and `NC(=O)c1c(-c2cccc(F)c2)c(Cl)n2c1CNCC2`, with 226 to 228 °C.
Then `CCCCCOc1ccc(CCOc2ccc(/C=C(\OCC)C(=O)O)cc2OCCCC)cc1F`, with 102 °C; and `O=C1C[C@H](NC(=O)[C@H]2CCCN2C(=O)c2nc(CCCc3ccc(O)cc3)c[nH]2)[C@@H](OCc2ccccc2)O1`, with 86 to 90 °C.
Then `Cc1ccccc1CCC(C)(C)NC(=O)n1nc(N(C)C)n(N)c1=O`, with 117 °C.
As to `CC(C)OC(=O)C1CCCn2c(C(=O)c3ccc(F)cc3)ccc21` (centres undefined), the melting point was 92 °C.
As to `O=C1c2cccc(NC(=S)Nc3cnccn3)c2C2CC3(CCN12)SCCS3` (centres undefined), the melting point worked out at 128 °C.
Then `Cn1cc(-c2cc3cccnc3[nH]2)c2cc(NS(C)(=O)=O)ccc21`, with 223 to 224 °C; and `Cc1c(-c2ccc(Cl)cc2Cl)nc(C#N)n1S(=O)(=O)N(C)C`, with 92 to 95 °C.
Then `O=C(O)C1=CC2=CCCC=C2Sc2c1ccc1c2CCC1`, with 77 °C.
Then `CCOc1cc(N2CCOCC2)c(OCC)cc1N=NNN1CCOCC1`, with 137 to 139 °C; and `N#Cc1cc(N)n(-c2c(Cl)cc(-c3ccc(C(F)(F)F)cc3)cc2Cl)n1`, with 195 to 199 °C; and `NC1([C@@H]2CCN(c3ccc4c(=O)c(C(=O)O)cn(C5CC5)c4c3OC(F)F)C2)CC1`, with 206 to 208 °C.
The compound `O=C(COc1ccc(Cl)cc1)N1CCc2occc2C1CN1CCC(O)C1` (centres undefined) had a melting point of 43 to 45 °C.
Then `COc1c(Cl)cc(OCC=C(Cl)Cl)cc1C=O`, with 78 °C; and `CC(=O)CC(=O)Nc1cccc(OCc2ccccc2)c1`, with 80 °C; and `CC(C)(Oc1ccccc1)C(=O)N[C@H]1CC[C@H](c2ccc(O)cc2)CC1`, with 114 to 117 °C.
Then `Cc1ccc(/C=C/[C@@]2(O)C[C@H](O)CC(=O)O2)cc1`, with 126 to 127 °C; and `COc1cc(C=CC(=O)Nc2cnc3c(C)cc(C)cc3c2-c2ccccc2Cl)ccc1OC(C)=O`, with 174 to 175 °C; and `CC(C)Cn1c(=O)n(C)c(=O)c2c(OCCCO)c(Cc3cccnc3)sc21`, with 111 to 112 °C.
`COC(=O)[C@@H](Cc1ccccc1)NC(=O)OCc1cc2cc(-c3ccccc3)ccc2o1` displayed a melting point of 85 to 86 °C.
Then `CC(C)c1cccc(C(C)C)c1NS(=O)(=O)CC(=O)NC(c1ccccc1)c1ccccc1`, with 166 to 167 °C; and `CCOC(=O)c1cnc2n(c1=O)C(C)CCC2C(=S)NC` (centres undefined), with 199 to 200 °C.
For the compound `CCOC(=O)CN=C(c1ccccc1)c1ccccc1NC1CCN(C)CC1`, the melting point was 102 to 103 °C.
Then `COC(=O)COc1ccc(OC2CCN(c3ccncc3)CC2)cc1`, with 74 to 76 °C; and `CCCCCCS(=O)(=O)c1ccccc1C1NC(=O)NC1=O` (centres undefined), with 188 to 189 °C; and `CS(=O)(=O)c1c(Cl)nc(Cl)nc1Cl`, with 146 to 147 °C.
`COc1ccc(C[C@@H](CO)NC(=O)c2ccnc(Br)c2)cc1OC` showed a melting point of 151 to 153 °C.
Then `O=C(O)c1cc2c(c(O)c1Br)OCO2`, with 196 to 205 °C; and `COc1cc(F)c(-c2ccc3nc(C(=O)NC(Cc4ccc(OCc5ccccc5)cc4)C(=O)O)cn3c2)c(F)c1` (centres undefined), with 219 °C.
Then `O=C(Nc1ccccc1)Nc1ccccn1`, with 186 to 188 °C; and `CC#CCOc1cc(Cl)ncn1`, with 43.5 °C; and `CCOc1nn(Cc2ccc(OCc3cn(-c4ccccn4)nc3C)cc2)cc1CCC(=O)O`, with 126 to 127 °C.
Regarding `CSCCC(=O)N(C)c1cnc(-c2cccnc2)s1`, the melting point was 116 to 118 °C.
For the compound `COP(=O)(OC)C(O)=Cc1ccccc1F`, the melting point was in the range of 71 to 73 °C.
Then `CC(=O)SCC(Cc1ccccc1)NC(=O)N1CCN(c2ccc(Cl)cc2)CC1` (single isomer, unassigned; (+)), with 140 °C; and `Cc1nnnn1-c1ccccc1C(=O)O`, with 157 to 160 °C.
Then `CS(=O)(=O)c1c(F)cc(C2=C(c3ccccc3)C(=O)OC2)cc1F`, with 204 °C; and `CCOC1CC(n2cc(CC)c(=O)[nH]c2=O)OC1CN` (centres undefined), with 122 to 123 °C; and `O=C(O)C1CCN(S(=O)(=O)c2ccc(Br)cc2)CC1`, with 225 to 227 °C.
Then `O=C1COCCOCC(=O)N2CCOCCOCCN1CCOCC2`, with 105 °C.

By melting point is commonly meant the temperature, or range, at which the solid turns liquid.
